≈ marks a conversion by molar mass, not a printed value.
Tests used:
[1] = test system: Burkholderia pseudomallei; assay: Antibacterial activity against Burkholderia pseudomallei BPS2020IRBA002 under succinate minimum medium by CLSI protocol based microdilution method; type: functional
Pseudomonas aeruginosa [2] = assay: Antibacterial activity against Pseudomonas aeruginosa PAD07 under muller hinton medium by CLSI protocol based microdilution method; type: functional
Pseudomonas aeruginosa [3] = assay: Antibacterial activity against Pseudomonas aeruginosa PAO1 under 1 uM FeCl3 medium by CLSI protocol based microdilution method; type: functional
[4] = test system: Burkholderia thailandensis; assay: Antibacterial activity against Burkholderia thailandensis E264 under 1 uM FeCl3 medium by CLSI protocol based microdilution method; type: functional
[5] = test system: Burkholderia pseudomallei; assay: Antibacterial activity against Burkholderia pseudomallei K96243 under 1 uM FeCl3 medium by CLSI protocol based microdilution method; type: functional
[6] = test system: Burkholderia thailandensis; assay: Antibacterial activity against Burkholderia thailandensis E264TS32C47 under muller hinton medium by CLSI protocol based microdilution method; type: functional
[7] = test system: Burkholderia thailandensis; assay: Antibacterial activity against Burkholderia thailandensis E264 under succinate minimum medium by CLSI protocol based microdilution method; type: functional
[8] = test system: Burkholderia pseudomallei; assay: Antibacterial activity against Burkholderia pseudomallei K96243 under succinate minimum medium by CLSI protocol based microdilution method; type: functional
Pseudomonas aeruginosa [9] = assay: Antibacterial activity against Pseudomonas aeruginosa AM85 under muller hinton medium by CLSI protocol based microdilution method; type: functional
[10] = test system: Burkholderia thailandensis; assay: Antibacterial activity against Burkholderia thailandensis E264TS32C10 under succinate minimum medium by CLSI protocol based microdilution method; type: functional
[11] = test system: Burkholderia pseudomallei; assay: Antibacterial activity against Burkholderia pseudomallei BPS2020IRBA003 under 1 uM FeCl3 medium by CLSI protocol based microdilution method; type: functional
[12] = test system: Burkholderia pseudomallei; assay: Antibacterial activity against Burkholderia pseudomallei BPS2020IRBA002 under muller hinton medium by CLSI protocol based microdilution method; type: functional
Pseudomonas aeruginosa [13] = assay: Antibacterial activity against Pseudomonas aeruginosa AM85 under succinate minimum medium by CLSI protocol based microdilution method; type: functional
[14] = test system: Burkholderia pseudomallei; assay: Antibacterial activity against Burkholderia pseudomallei BPS2020IRBA004 under muller hinton medium by CLSI protocol based microdilution method; type: functional
[15] = test system: Burkholderia pseudomallei; assay: Antibacterial activity against Burkholderia pseudomallei BPS2020IRBA005 under succinate minimum medium by CLSI protocol based microdilution method; type: functional
[16] = test system: Burkholderia pseudomallei; assay: Antibacterial activity against Burkholderia pseudomallei BPS2020IRBA001 under 1 uM FeCl3 medium by CLSI protocol based microdilution method; type: functional
Pseudomonas aeruginosa [17] = assay: Antibacterial activity against Pseudomonas aeruginosa PAO1 under succinate minimum medium by CLSI protocol based microdilution method; type: functional
[18] = test system: Burkholderia pseudomallei; assay: Antibacterial activity against Burkholderia pseudomallei BPS2020IRBA003 under succinate minimum medium by CLSI protocol based microdilution method; type: functional
Pseudomonas aeruginosa [19] = assay: Antibacterial activity against Pseudomonas aeruginosa PAD07 under 1 uM FeCl3 medium by CLSI protocol based microdilution method; type: functional
[20] = test system: Burkholderia thailandensis; assay: Antibacterial activity against Burkholderia thailandensis E264TS32C47 under 1 uM FeCl3 medium by CLSI protocol based microdilution method; type: functional
Pseudomonas aeruginosa [21] = assay: Antibacterial activity against Pseudomonas aeruginosa AM85 under 1 uM FeCl3 medium by CLSI protocol based microdilution method; type: functional
[22] = test system: Burkholderia pseudomallei; assay: Antibacterial activity against Burkholderia pseudomallei BPS2020IRBA003 under muller hinton medium by CLSI protocol based microdilution method; type: functional
Pseudomonas aeruginosa [23] = assay: Antibacterial activity against Pseudomonas aeruginosa PAO1 under muller hinton medium by CLSI protocol based microdilution method; type: functional
[24] = test system: Burkholderia thailandensis; assay: Antibacterial activity against Burkholderia thailandensis E264TS32C12 under muller hinton medium by CLSI protocol based microdilution method; type: functional
Pseudomonas aeruginosa [25] = assay: Antibacterial activity against Pseudomonas aeruginosa PAD07 under succinate minimum medium by CLSI protocol based microdilution method; type: functional
[26] = test system: Burkholderia pseudomallei; assay: Antibacterial activity against Burkholderia pseudomallei BPS2020IRBA002 under 1 uM FeCl3 medium by CLSI protocol based microdilution method; type: functional
[27] = Antibacterial activity against Burkholderia pseudomallei BPS2020IRBA005 under 1 uM FeCl3 medium by CLSI protocol based microdilution method; type: functional; conditions: Burkholderia thailandensis
[28] = test system: Burkholderia thailandensis; assay: Antibacterial activity against Burkholderia thailandensis E264TS32C47 under succinate minimum medium by CLSI protocol based microdilution method; type: functional
HepG2 [29] = assay: Cytotoxicity against human HepG2 cells at 25 ug/ml after 48 hrs by CellTiter-Glo luminescent cell viability assay; type: toxicity, cell-based; conditions: hepg2, 48 h, dose 25 µg/ml
[30] = test system: Burkholderia pseudomallei; assay: Antibacterial activity against Burkholderia pseudomallei BPS2020IRBA001 under succinate minimum medium by CLSI protocol based microdilution method; type: functional
[31] = test system: Burkholderia thailandensis; assay: Antibacterial activity against Burkholderia thailandensis E264TS32C10 under muller hinton medium by CLSI protocol based microdilution method; type: functional
[32] = test system: Burkholderia thailandensis; assay: Antibacterial activity against Burkholderia thailandensis E264 under muller hinton medium by CLSI protocol based microdilution method; type: functional
[33] = test system: Burkholderia pseudomallei; assay: Antibacterial activity against Burkholderia pseudomallei K96243 under muller hinton medium by CLSI protocol based microdilution method; type: functional
[34] = test system: Burkholderia pseudomallei; assay: Antibacterial activity against Burkholderia pseudomallei BPS2020IRBA001 under muller hinton medium by CLSI protocol based microdilution method; type: functional
[35] = test system: Burkholderia thailandensis; assay: Antibacterial activity against Burkholderia thailandensis E264TS32C12 under 1 uM FeCl3 medium by CLSI protocol based microdilution method; type: functional
[36] = test system: Burkholderia thailandensis; assay: Antibacterial activity against Burkholderia thailandensis E264TS32C12 under succinate minimum medium by CLSI protocol based microdilution method; type: functional
[37] = test system: Burkholderia thailandensis; assay: Antibacterial activity against Burkholderia thailandensis E264TS32C10 under 1 uM FeCl3 medium by CLSI protocol based microdilution method; type: functional
[38] = test system: Burkholderia pseudomallei; assay: Antibacterial activity against Burkholderia pseudomallei BPS2020IRBA005 under muller hinton medium by CLSI protocol based microdilution method; type: functional
[39] = test system: Burkholderia thailandensis; assay: Antibacterial activity against Burkholderia thailandensis E264TS32C10 under succinate minimum medium after 48 hrs by CLSI protocol based microdilution method; type: functional
[40] = test system: Burkholderia pseudomallei; assay: Antibacterial activity against Burkholderia pseudomallei BPS2020IRBA005 under 1 uM FeCl3 medium after 48 hrs by CLSI protocol based microdilution method; type: functional
[41] = test system: Burkholderia pseudomallei; assay: Antibacterial activity against Burkholderia pseudomallei BPS2020IRBA002 under succinate minimum medium after 48 hrs by CLSI protocol based microdilution method; type: functional
[42] = Stability in aqueous solution after 1 months; type: physicochemical; conditions: buffer, 730 h
[43] = test system: Burkholderia pseudomallei; assay: Antibacterial activity against Burkholderia pseudomallei K96243 under succinate minimum medium after 48 hrs by CLSI protocol based microdilution method; type: functional
HepG2 [44] = assay: Cytotoxicity against human HepG2 cells at 28 ug/ml after 48 hrs by CellTiter-Glo luminescent cell viability assay; type: toxicity, cell-based; conditions: hepg2, 48 h, dose 28 µg/ml
[45] = test system: Burkholderia pseudomallei; assay: Antibacterial activity against Burkholderia pseudomallei BPS2020IRBA005 under succinate minimum medium after 48 hrs by CLSI protocol based microdilution method; type: functional
Lipid bilayer = assay: Binding affinity to bacterial inner membrane mimic PE/PG/CL/PC (60:20:10:10) assessed as maximum insertion pressure
Lipopolysaccharide (LPS) = assay: Binding affinity to Pseudomonas aeruginosa lipopolysaccharide assessed as maximum insertion pressure

O=C(O)c1cn(C2CC2)c2cc(N3CCN(C(=O)c4ccc(O)c(O)c4Cl)CC3)c(F)cc2c1=O
MIC [1]: > 128 µg/mL | MIC (Pseudomonas aeruginosa [2]): 32 µg/mL (≈ 63.8 µM) | MIC (Pseudomonas aeruginosa [3]): 16 µg/mL (≈ 31.9 µM) | MIC [4]: 64 µg/mL (≈ 128 µM) | MIC [5]: 16 µg/mL (≈ 31.9 µM) | MIC [6]: 128 µg/mL (≈ 255 µM) | MIC [7]: 128 µg/mL (≈ 255 µM) | MIC [8]: 32 µg/mL (≈ 63.8 µM) | MIC (Pseudomonas aeruginosa [9]): > 128 µg/mL | MIC [10]: > 128 µg/mL | MIC [11]: > 128 µg/mL | MIC [12]: > 128 µg/mL | MIC (Pseudomonas aeruginosa [13]): > 128 µg/mL | MIC [14]: > 128 µg/mL | MIC [15]: > 128 µg/mL | MIC [16]: 128 µg/mL (≈ 255 µM) | MIC (Pseudomonas aeruginosa [17]): 16 µg/mL (≈ 31.9 µM) | MIC [18]: 128 µg/mL (≈ 255 µM) | MIC (Pseudomonas aeruginosa [19]): 16 µg/mL (≈ 31.9 µM) | MIC [20]: 128 µg/mL (≈ 255 µM) | MIC (Pseudomonas aeruginosa [21]): > 128 µg/mL | MIC [22]: 128 µg/mL (≈ 255 µM) | MIC (Pseudomonas aeruginosa [23]): 32 µg/mL (≈ 63.8 µM) | MIC [24]: > 128 µg/mL | MIC (Pseudomonas aeruginosa [25]): 1 µg/mL (≈ 1.99 µM) | MIC [26]: > 128 µg/mL | MIC [27]: > 128 µg/mL | MIC [28]: 128 µg/mL (≈ 255 µM) | Activity (HepG2 [29]): Non-Toxic | MIC [30]: 128 µg/mL (≈ 255 µM) | MIC [31]: > 128 µg/mL | MIC [32]: 128 µg/mL (≈ 255 µM) | MIC [33]: 64 µg/mL (≈ 128 µM) | MIC [34]: > 128 µg/mL | MIC [35]: 128 µg/mL (≈ 255 µM) | MIC [36]: 128 µg/mL (≈ 255 µM) | MIC [37]: > 128 µg/mL | MIC [38]: > 128 µg/mL

CC(OC(=O)c1cccc(O)c1O)OC(=O)N1CCN(c2cc3c(cc2F)c(=O)c(C(=O)O)cn3C2CC2)CC1 (centres undefined)
MIC (Pseudomonas aeruginosa [2]): 0.25 µg/mL (≈ 0.45 µM) | MIC (Pseudomonas aeruginosa [3]): 1 µg/mL (≈ 1.8 µM) | MIC [4]: 8 µg/mL (≈ 14.4 µM) | MIC [5]: 4 µg/mL (≈ 7.2 µM) | MIC [6]: 32 µg/mL (≈ 57.6 µM) | MIC [7]: 8 µg/mL (≈ 14.4 µM) | MIC (Pseudomonas aeruginosa [9]): > 128 µg/mL | MIC [11]: 16 µg/mL (≈ 28.8 µM) | MIC [12]: 32 µg/mL (≈ 57.6 µM) | MIC [39]: 32 µg/mL (≈ 57.6 µM) | MIC (Pseudomonas aeruginosa [13]): > 128 µg/mL | MIC [14]: 32 µg/mL (≈ 57.6 µM) | MIC [16]: 32 µg/mL (≈ 57.6 µM) | MIC [40]: 16 µg/mL (≈ 28.8 µM) | MIC (Pseudomonas aeruginosa [17]): 1 µg/mL (≈ 1.8 µM) | MIC [18]: 8 µg/mL (≈ 14.4 µM) | MIC (Pseudomonas aeruginosa [19]): 2 µg/mL (≈ 3.6 µM) | MIC [20]: 8 µg/mL (≈ 14.4 µM) | MIC (Pseudomonas aeruginosa [21]): > 128 µg/mL | MIC [41]: 8 µg/mL (≈ 14.4 µM) | MIC [22]: 32 µg/mL (≈ 57.6 µM) | MIC (Pseudomonas aeruginosa [23]): 1 µg/mL (≈ 1.8 µM) | MIC [24]: 64 µg/mL (≈ 115 µM) | Stability [42]: Stable | MIC (Pseudomonas aeruginosa [25]): 0.25 µg/mL (≈ 0.45 µM) | MIC [43]: 2 µg/mL (≈ 3.6 µM) | MIC [26]: 8 µg/mL (≈ 14.4 µM) | MIC [28]: 4 µg/mL (≈ 7.2 µM) | Activity (HepG2 [44]): Non-Toxic | MIC [30]: 2 µg/mL (≈ 3.6 µM) | MIC [31]: > 128 µg/mL | MIC [32]: 32 µg/mL (≈ 57.6 µM) | MIC [33]: 8 µg/mL (≈ 14.4 µM) | MIC [34]: 128 µg/mL (≈ 230 µM) | MIC [45]: 8 µg/mL (≈ 14.4 µM) | MIC [35]: 16 µg/mL (≈ 28.8 µM) | MIC [36]: 4 µg/mL (≈ 7.2 µM) | MIC [37]: 32 µg/mL (≈ 57.6 µM) | Activity (Lipid bilayer): 44 mN/meter | Activity (Lipopolysaccharide (LPS)): 30 mN/meter | MIC [38]: 128 µg/mL (≈ 230 µM)
